# According to patent US20220184082A1, “CANCER THERAPY USING 3,5-DISUBSTITUTED BENZENE ALKYNYL COMPOUND AND PEMBROLIZUMAB” (TAIHO PHARMACEUTICAL CO., LTD., priority 2019, published 2022):
# B1: vofatamab: an anti-FGFR3 antibody (antibody, chains of the INN, looked up, V domains shown)
# VH: EVQLVESGGGLVQPGGSLRLSCAASGFTFTSTGISWVRQAPGKGLEWVGRIYPTSGSTNYADSVKGRFTISADTSKNTAYLQMNSLRAEDTAVYYCARTYGIYDLYVDYTEYVMDYWGQGTLVTVSS
# VL: DIQMTQSPSSLSASVGDRVTITCRASQDVDTSLAWYKQKPGKAPKLLIYSASFLYSGVPSRFSGSGSGTDFTLTISSLQPEDFATYYCQQSTGHPQTFGQGTKVEIK
# How the values were obtained:
# [1] = tested on: mouse breast cancer cell line 4T1; conditions: 4T1-implanted BALB/cAJcl mouse; oral daily 14 days, 15 and 30 mg/kg/day; Day 15
# Description: On the day following the final administration (Day 15), lymphocyte fractions were isolated from the tumor, spleen, and peripheral blood, and myeloid-derived suppressor cells (MDSCs) (CD11b^+/Gr-1^+ cells), CD4-positive T cells, and CD8-positive T cells were measured using a cell sorter.
# [2] = tested on: urothelial cancer; conditions: cited from earlier work
Molecule,CD4-positive T cells in the peripheral blood lymphocyte fractions compared with the control [1],CD8-positive T cells in the peripheral blood lymphocyte fractions compared with the control [1],CD8-positive T cells in the spleen lymphocyte fractions compared with the control [1],MDSCs in the peripheral blood lymphocyte fractions compared with the control [1],"Response by combined use with pembrolizumab ([2]; urothelial cancer patients without FGFR genetic aberration, combined with pembrolizumab)",Sensitivity state of the cancer to immune checkpoint inhibitors ([2]; urothelial cancer patients)
"C=CC(=O)N1CC[C@H](n2nc(C#Cc3cc(OC)cc(OC)c3)c3c(N)ncnc32)C1 [compound 1, (S)-1-(3-(4-amino-3-((3,5-dimethoxyphenyl)ethynyl)-1H-pyrazolo[3,4-d]pyrimidin-1-yl)pyrrolidin-1-yl)prop-2-en-1-one]",tended to increase in a dose-dependent manner,tended to increase in a dose-dependent manner,tended to increase in a dose-dependent manner,tended to decrease in a dose-dependent manner,,
B1,,,,,response by combined use with pembrolizumab is observed,change from a “cold” state (low sensitivity to immune checkpoint inhibitors) to a “hot” state (high sensitivity to immune checkpoint inhibitors)
